The values that follow are results of earlier work, collected in PMC7855261 (Cell chemical biology, 2020).

The subject of the series is r(CUG)12-MBNL1 complex. Particulars: ref Parkesh et al., 2012; Rzuczek et al., 2015.

With `Nc1ccc2nc(-c3ccc(-c4nc5ccc(N)cc5[nH]4)cc3)[nH]c2c1` [Compound 3, 2,2′-p-Phenylene-bis(5-aminobenzimidazole)], the “Bind r(CUG)^exp and inhibit formation of the r(CUG)^exp-MBNL1 complex” value was “inhibit formation of the r(CUG)^exp-MBNL1 complex”.
